# According to patent US9023789B2, “Amylin analogs and pharmaceutical compositions thereof” (Novo Nordisk A/S, priority 2012, dated 2015):
# Like-named read-outs stand apart in the source and are kept apart here. Numbered stars: 1 amine (or outer) side, 2 acyl side, 3 side chain; on linkers, the order of the positions; unused ones are H or OH. Bridge positions count the residues as written; N and C are the ends. Side chains are listed from the residue outwards. Peptide text beside a SMILES is read from it. * marks the point of attachment. C20 diacid = O=C(O)CCCCCCCCCCCCCCCCCCC(=O)*; γGlu = O=C(O)[C@H](CCC(=O)[*:2])N[*:1]
# Assays:
# [1] = biological target: T1, human amylin 3(a) receptor (human calcitonin receptor + RAMP-3) in BHK570 cells (Homo sapiens, UniProt O60896+P30988); experiment: ASSAY (II)a functional assay, human amylin receptor (CRE luciferase); assay type: cell-based; settings: for EC50: human amylin receptor functional potency, assay (II), read-out: hAmylin-R funct. EC50
# T1 construct: expressed in transfected cells
# Outline: (§1)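 Ligand exposure 3 h at 37 °C, 5% CO2 in DMEM with 10% FBS, 10 mM Hepes pH 7.4. cAMP-driven luciferase read by luminescence after 30 min LucLite at room temperature.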
# [2] = biological target: T2, human calcitonin (a) receptor in BHK570 cells (Homo sapiens, UniProt P30988); experiment: ASSAY (II)a functional assay, human calcitonin receptor (CRE luciferase); assay type: cell-based; settings: read-out: hCTR funct. EC50
# T2 construct: expressed in transfected cells
# T2 sequence (P30988 25-474): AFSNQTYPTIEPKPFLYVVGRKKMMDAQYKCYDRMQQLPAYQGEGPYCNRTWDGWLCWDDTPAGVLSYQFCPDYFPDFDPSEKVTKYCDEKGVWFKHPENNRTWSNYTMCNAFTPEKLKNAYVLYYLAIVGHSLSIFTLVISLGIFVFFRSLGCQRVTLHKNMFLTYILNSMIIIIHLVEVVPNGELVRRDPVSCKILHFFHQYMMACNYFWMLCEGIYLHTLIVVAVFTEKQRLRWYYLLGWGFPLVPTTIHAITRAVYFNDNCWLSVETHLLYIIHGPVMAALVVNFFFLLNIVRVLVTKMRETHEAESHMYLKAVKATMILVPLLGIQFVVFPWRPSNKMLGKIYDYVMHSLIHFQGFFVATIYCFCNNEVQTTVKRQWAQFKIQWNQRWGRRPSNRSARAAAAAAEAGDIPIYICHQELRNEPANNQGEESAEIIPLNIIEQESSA
# Outline: as §1
# [3] = ASSAY (IV) determination of solubility; assay type: physicochemical
# Outline: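 Polypeptide in water at […] mixed 1:1 with 100 mM buffers of pH 3.0-8.0 (glycylglycine pH 3-5, bistrispropane pH 6-8). Held 18 h at room temperature, then centrifuged; concentration remaining in solution measured by UPLC.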
# [4] = biological target: T3, rat amylin receptor (rat calcitonin receptor + rat RAMP 3) (Rattus norvegicus, UniProt P32214+Q9JJ73); experiment: ASSAY (VI) binding to the rat amylin receptor; settings: for IC50: binding to rat amylin receptor, read-out: rAmylin-R bind IC50
# T3 construct: expressed in transfected cells; host or cells: BHK tk'ts 13 (transient, FuGENE 6), membranes
# T3 sequence (P32214 25-479 isoform P32214-2 limits assumed): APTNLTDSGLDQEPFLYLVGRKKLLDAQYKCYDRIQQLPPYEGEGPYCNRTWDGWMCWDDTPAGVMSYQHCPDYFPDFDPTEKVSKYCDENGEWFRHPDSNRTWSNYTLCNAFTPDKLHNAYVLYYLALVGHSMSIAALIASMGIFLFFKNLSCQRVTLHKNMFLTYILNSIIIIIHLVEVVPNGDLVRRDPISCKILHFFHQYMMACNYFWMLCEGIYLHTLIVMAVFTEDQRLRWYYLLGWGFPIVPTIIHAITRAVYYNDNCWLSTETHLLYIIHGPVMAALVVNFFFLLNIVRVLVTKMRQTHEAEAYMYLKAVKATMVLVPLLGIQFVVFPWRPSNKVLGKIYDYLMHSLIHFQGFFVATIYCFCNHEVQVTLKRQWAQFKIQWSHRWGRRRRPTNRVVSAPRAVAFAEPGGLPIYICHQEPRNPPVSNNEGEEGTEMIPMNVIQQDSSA
# T3 sequence (Q9JJ73 23-147 partner): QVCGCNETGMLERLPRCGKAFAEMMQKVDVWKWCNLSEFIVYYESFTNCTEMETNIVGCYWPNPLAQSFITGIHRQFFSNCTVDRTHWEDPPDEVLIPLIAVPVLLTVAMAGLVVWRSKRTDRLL
# Outline: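 This assay measured binding to the rat amylin receptor. BHK tk′ts 13 cells were transiently transfected with the rat calcitonin receptor using FuGENE® 6 (Roche), following the manufacturer's recommendations. About 48 hours after transfection, the cells were harvested and membranes were prepared from them for the binding determination.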
# [5] = biological target: T4, human calcitonin receptor (Homo sapiens, UniProt P30988); experiment: ASSAY (VII) binding to the human calcitonin receptor (SPA, 125I-Calcitonin); settings: read-out: hCTR bind IC50;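 note: cell membranes (35 ng/µL) combined with SPA beads in 40 µL of pH 7.4 Hepes buffer, 384-well format, signal counted on a TopCounter instrument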
# T4 construct: expressed in transfected cells
# T4 sequence (P30988 25-474): T2 sequence (P30988 25-474)
# [6] = hCTR funct. EC50 over hAmylin-R funct. EC50
# [7] = human functional selectivity: hCTR funct. EC50 / hAmylin-R funct. EC50
# [8] = bistrispropane buffer, pH 6.5, read-out: Solubility pH 6.5 Concentration
# [9] = bistrispropane buffer, pH 7.5, read-out: Solubility pH 7.5 Concentration
# [10] = bistrispropane buffer, pH 6.0, read-out: Solubility pH 6.0 Concentration
# [11] = bistrispropane buffer, pH 7.0, read-out: Solubility pH 7.0 Concentration
# [12] = bistrispropane buffer, pH 8.0, read-out: Solubility pH 8.0 Concentration
# [13] = glycylglycine buffer, pH 3.0, read-out: Solubility pH 3.0 Concentration
# [14] = glycylglycine buffer, pH 4.0, read-out: Solubility pH 4.0 Concentration
# [15] = glycylglycine buffer, pH 5.0, read-out: Solubility pH 5.0 Concentration
# [16] = Table 7, rat binding selectivity, rCTR IC50 / rAmylin-R IC50
# [17] = Table 7a (preferred compounds), rat binding selectivity, rCTR IC50 / rAmylin-R IC50
# [18] = ratio of rCTR bind IC50 to rAmylin-R bind IC50
# [19] = hCTR funct. EC50 divided by hAmylin-R funct. EC50
# T1 sequence (O60896 24-148, one chain of several): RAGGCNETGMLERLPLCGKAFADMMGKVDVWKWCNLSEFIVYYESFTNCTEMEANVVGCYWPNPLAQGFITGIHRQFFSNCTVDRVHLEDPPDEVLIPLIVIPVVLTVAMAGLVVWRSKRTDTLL
"Ratio hCT/hAmylin funct. [1, 6]",EC50 [1] [nM],"Ratio hCT/hAmylin funct. [1, 7]",EC50 [2] [nM],"solubility at 18 h [3, 8] [µM]","solubility at 18 h [3, 9] [µM]","solubility at 18 h [3, 10] [µM]","solubility at 18 h [3, 11] [µM]","solubility at 18 h [3, 12] [µM]","solubility at 18 h [3, 13] [µM]","solubility at 18 h [3, 14] [µM]","solubility at 18 h [3, 15] [µM]",IC50 ([4]; Table 7) [nM],"Ratio rCT/rAmylin binding [4, 16]","Ratio rCT/rAmylin binding [4, 17]","Ratio rCT/rAmylin binding [4, 18]",IC50 [5] [nM],"Ratio hCT/hAmylin funct. [1, 19]",SMILES
12.0,0.224,12.0,2.7,≥ 200,≥ 200,≥ 200,≥ 200,≥ 200,≥ 200,≥ 200,172,1.3,103.9,103.9,103.9,32.5,–,CC(C)C[C@H](NC(=O)[C@H](CCCNC(=N)N)NC(=O)[C@H](CCC(N)=O)NC(=O)[C@@H](NC(=O)[C@H](C)NC(=O)[C@@H]1CSSC[C@H](NC(=O)[C@@H](N)CCCCNC(=O)CC[C@H](NC(=O)CC[C@H](NC(=O)CCCCCCCCCCCCCCCCCCC(=O)O)C(=O)O)C(=O)O)C(=O)N[C@@H](CC(N)=O)C(=O)N[C@@H]([C@@H](C)O)C(=O)N[C@@H](C)C(=O)N[C@@H]([C@@H](C)O)C(=O)N1)[C@@H](C)O)C(=O)N[C@@H](C)C(=O)N[C@@H](CC(=O)O)C(=O)N[C@@H](Cc1ccccc1)C(=O)N[C@@H](CC(C)C)C(=O)N[C@@H](CCCNC(=N)N)C(=O)N[C@@H](Cc1c[nH]cn1)C(=O)N[C@@H](CO)C(=O)N[C@@H](CO)C(=O)N1CCC[C@H]1C(=O)N[C@@H](CC(N)=O)C(=O)N[C@@H](Cc1ccccc1)C(=O)NCC(=O)N[C@@H](C)C(=O)N1CCC[C@H]1C(=O)N[C@@H](CC(C)C)C(=O)N[C@@H](CO)C(=O)N[C@@H](CO)C(=O)N[C@H](C(=O)N[C@@H](CC(N)=O)C(=O)N[C@H](C(=O)NCC(=O)N[C@@H](CO)C(=O)N[C@@H](CC(=O)O)C(=O)N[C@H](C(=O)N[C@@H](Cc1ccc(O)cc1)C(N)=O)[C@@H](C)O)C(C)C)[C@@H](C)O [Example 1] (H-K([γGlu-γGlu-C20 diacid])CNTATCATQRLADFLRHSSPNFGAPLSSTNVGSDTY-NH2; disulfide 2-7)
–,0.141,6.5,0.92,≥ 200,≥ 200,≥ 200,≥ 200,≥ 200,≥ 200,≥ 200,≥ 200,0.11,69.1,69.1,69.1,2.64,6.5,CC[C@H](C)[C@H](NC(=O)[C@H](C)NC(=O)CNC(=O)[C@H](Cc1ccccc1)NC(=O)[C@H](CC(N)=O)NC(=O)[C@@H]1CCCN1C(=O)[C@H](CO)NC(=O)[C@H](CO)NC(=O)[C@H](Cc1c[nH]cn1)NC(=O)[C@H](CCCNC(=N)N)NC(=O)[C@H](CC(C)C)NC(=O)[C@H](Cc1ccccc1)NC(=O)[C@H](CC(N)=O)NC(=O)[C@H](C)NC(=O)[C@H](CC(C)C)NC(=O)[C@H](CCCNC(=N)N)NC(=O)[C@H](CCC(N)=O)NC(=O)[C@@H](NC(=O)[C@H](C)NC(=O)[C@@H]1CSSC[C@H](NC(=O)[C@@H](N)CCCCNC(=O)COCCOCCNC(=O)CCCCCCCCCCCCCCCCCCC(=O)O)C(=O)N[C@@H](CC(N)=O)C(=O)N[C@@H]([C@@H](C)O)C(=O)N[C@@H](C)C(=O)N[C@@H]([C@@H](C)O)C(=O)N1)[C@@H](C)O)C(=O)N1CCC[C@H]1C(=O)N[C@@H](CO)C(=O)N[C@@H](CO)C(=O)N[C@H](C(=O)N[C@@H](CC(N)=O)C(=O)N[C@H](C(=O)NCC(=O)N[C@@H](CO)C(=O)N[C@@H](CC(N)=O)C(=O)N[C@H](C(=O)N[C@@H](Cc1ccc(O)cc1)C(N)=O)[C@@H](C)O)C(C)C)[C@@H](C)O [Example 43]
24.0,0.198,24.0,4.75,≥ 200,87,≥ 200,≥ 200,39,≥ 200,≥ 200,≥ 200,0.369,53.3,53.3,53.3,4.87,24.0,CC[C@H](C)[C@H](NC(=O)[C@H](C)NC(=O)CNC(=O)[C@H](Cc1ccccc1)NC(=O)[C@H](CC(N)=O)NC(=O)[C@@H]1CCCN1C(=O)[C@H](CO)NC(=O)[C@H](CO)NC(=O)[C@H](Cc1c[nH]cn1)NC(=O)[C@H](CCCNC(=N)N)NC(=O)[C@H](CC(C)C)NC(=O)[C@H](Cc1ccccc1)NC(=O)[C@H](CC(N)=O)NC(=O)[C@H](C)NC(=O)[C@H](CC(C)C)NC(=O)[C@H](CCCNC(=N)N)NC(=O)[C@H](CCC(N)=O)NC(=O)[C@@H](NC(=O)[C@H](C)NC(=O)[C@@H]1CSSC[C@H](NC(=O)[C@H](CCCNC(=N)N)NC(=O)[C@@H](N)CCCCNC(=O)CC[C@H](NC(=O)CCCCCCCCCCCCCCCCCCC(=O)O)C(=O)O)C(=O)N[C@@H](CC(N)=O)C(=O)N[C@@H]([C@@H](C)O)C(=O)N[C@@H](C)C(=O)N[C@@H]([C@@H](C)O)C(=O)N1)[C@@H](C)O)C(=O)N1CCC[C@H]1C(=O)N[C@@H](CO)C(=O)N[C@@H](CO)C(=O)N[C@H](C(=O)N[C@@H](CC(N)=O)C(=O)N[C@H](C(=O)NCC(=O)N[C@@H](CO)C(=O)N[C@@H](Cc1c[nH]cn1)C(=O)N[C@H](C(=O)N[C@@H](Cc1ccc(O)cc1)C(N)=O)[C@@H](C)O)C(C)C)[C@@H](C)O [Example 44] (H-K([γGlu-C20 diacid])RCNTATCATQRLANFLRHSSPNFGAIPSSTNVGSHTY-NH2; disulfide 3-8)
